In patent publication US7282340B2, “Methods for identifying an analog that promotes nerve regeneration” (Oregon Health Sciences University, priority 1997, dated 2007):
Where “and” joins values, the source holds several entries; their conditions need not be identical. Equal entries are not always repeated. Marks after values point to notes of the source that are not given here.

Assays:
rat sciatic nerve [1] = conditions: cited from earlier work
[2] = test system: SH-SY5Y human neuroblastoma cells; assay: Neurite outgrowth (neurite length) in NGF-treated SH-SY5Y cells; format: cell-based; conditions: for Mean neurite length: mean ± SEM
Description: Cell cultures. SH-SY5Y human neuroblastoma cells were maintained in DMEM medium (GIBCO) supplemented with 10% fetal calf serum (SIGMA), 50 IU>mL penicillin, and […] streptomycin (GIBCO) at 37° C. in 7% CO^2. Cells were plated in six-well plates at 1×10^6 cells/well and treated with […] aphidicolin (SIGMA). At five days, cells were washed, treated with nerve growth factor (NGF) (Boehringer Mannheim, Indianapolis, Ind.) at 10 ng/mL (to induce process outgrowth) in the presence or absence of V-10,367 (1, 10, or 100 nM) (Armistead et al., Acta Cryst., D51:522-528, 1995; FIG. 1). Media was changed at 96 hours and replaced with fresh media with or without the compounds (NGF and V-10,367) for an additional 72 hours (total time, 168 hours). All experiments were run in duplicate wells and repeated at least twice for reproducibility.
Light morphometry of neurite lengths. […] Neurite lengths were measured on photographic prints using a Houston Instrument HI-PAD digitizing tablet connected to an IBM XT computer with appropriate software (Bioquant IV, R&M Biometrics, Nashville, Tenn.); only those processes greater than two times the cell body length were measured. Data from identically treated wells were not different and were therefore combined. […] Histograms were compared using a Mann-Whitney U test, which makes no assumptions about the shape of the distribution.

[3] = Single-dose pharmacokinetics in the rat; format: in vivo, Sprague-Dawley rat
Description: Pharmacokinetics of V-10,367. To determine the appropriate daily dose of V-10,367 for administration to rats, single-dose pharmacokinetics of V-10,367 were evaluated in the rat following intravenous and subcutaneous dosing. […] Since these concentrations were sufficiently above the 10 nM concentration needed to cause neurite extension in vitro, a subcutaneous dose of 200 mg/kg twice daily was selected for subsequent experiments.

rat sciatic nerve [4] = assay: Functional recovery after sciatic nerve crush; format: in vivo, Sprague-Dawley rats
Description: (§1) Animals and surgical procedure. Ten six-week-old Sprague-Dawley rats were anesthetized with 2% halothane, the right sciatic nerve exposed, and the nerve crushed twice (for a total of 30 sec using a No. 7 Dumont jeweler's forceps) at the level of the hip. The crush site was marked by tying a sterile 9-0 suture through the perineurial sheath.
(§2) Preparation and administration of V-10,367. V-10,367-HCl (molecular weight, 639.18) was dissolved in vehicle comprising 40% propylene glycol:10% ethanol:50% water. Fresh solutions were prepared at the time of each injection. Three rats received subcutaneous injections (200 mg/kg) every 12 hours (beginning immediately after the nerve crush; totaling 400 mg/kg/day) in the back of the neck using a 25 g needle. Control animals (n=3) received injections every 12 hours of vehicle only. An additional control group (n=3) received daily injections of saline. Animals were weighed daily and the weights plotted over the 18-day period of the study.
Two separate additional studies were performed. In the first study, three axotomized rats received a single daily subcutaneous injection (200 mg/kg) as above. In the second study, V-10,367 was delivered as to axotomized rats as a continuous infusion. Osmotic pumps (Alza, Palo Alto, Calif.) model 2ML2 filled with V-10,367-HCl (200 mg/ml) or vehicle (two per group) were implanted under the skin on the left side of the animal.
Behavioral assessment. Functional recovery was assessed in FK506-treated animals used for morphological study only. Animals were examined blindly by two investigators daily until the day of perfusion (18 days). […] To obtain records during walking, the hind feet were marked with tempera paint and the animals allowed to freely walk across a sheet of paper between 14-18 days. Toe spread during walking was defined as the distance between the first and fifth digits, measured to the nearest 0.5 mm; three foot prints were analyzed from each animal. This analysis represents a reliable and reproducible index of functional recovery which, unlike the sciatic nerve function index, is not influenced by how fast the animal walks (Walker et al., Restor. Neurol. Neurosci. 6:189-193, 1994).

soleus nerve = assay: Electron microscopic morphometry of axonal areas in soleus nerve after sciatic nerve crush; format: in vivo, Sprague-Dawley rats
Description: as §1
Preparation and administration of V-10,367. V-10,367-HCl (molecular weight, 639.18) was dissolved in vehicle comprising 40% propylene glycol:10% ethanol:50% water. Fresh solutions were prepared at the time of each injection. Three rats received subcutaneous injections (200 mg/kg) every 12 hours (beginning immediately after the nerve crush; totaling 400 mg/kg/day) in the back of the neck using a 25 g needle. Control animals (n=3) received injections every 12 hours of vehicle only. An additional control group (n=3) received daily injections of saline. […]
Electron microscopic analysis of axons. […] Axonal areas of both myelinated and unmyelinated fibers were determined by tracing the axolemma using a Houston Instrument HI-PAD digitizing tablet connected to an IBM XT computer with appropriate software (Bioquant IV, R&M biometrics, Nashville, Tenn.). […] For each group (i.e., 400 and 200 mg/kg/day V-10,367-treated and vehicle-treated), mean values and standard areas were calculated for the whole population of axons. […]

[5] = rat, in vivo, sc, 400 mg/kg/day
Description: as §2

FKBP-12 = FKBP-12 (Homo sapiens, UniProt P62942); assay: FKBP-12 inhibition; format: biochemical
Sequence of FKBP-12 (P62942 whole entry, species assumed): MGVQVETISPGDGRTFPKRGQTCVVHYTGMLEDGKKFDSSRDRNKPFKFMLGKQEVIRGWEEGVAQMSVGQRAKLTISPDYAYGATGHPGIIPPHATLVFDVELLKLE
From the text: Assays for inhibition of FKBP-12 rotamase activity are described in Harding et al. (Nature 341:758-760, 1989), Siekierka et al., Nature 341:755-757, 1989, and U.S. Pat. No. 5,654,332, for example. Chymotrypsin is able to cleave p-nitroanilide from the trans form of the artificial substrate N-succinyl-Ala-Ala-Pro-Phe-p-nitroanilide, but not from the cis form. The assays of Harding et al. and Siekierka et al. employ a reaction mixture that includes the cis form of N-succinyl-Ala-Ala-Pro-Phe-p-nitroanilide, FKBP-12, a test compound, and chymotrypsin, and spectrophotometrically measure the release of p-nitroanilide as a result of isomerization of the substrate.

[6] = single intravenous dose 17.7 mg/kg
[7] = subcutaneous injection 174 mg/kg
[8] = continuous infusion 18 days via osmotic minipump

Compound: CC[C@@H]1/C=C(\C)[C@@H](O)[C@H](C)C[C@H](OC)[C@H]2O[C@@](O)(C(=O)C(=O)N3CCCC[C@H]3C(=O)O[C@H](/C(C)=C/[C@@H]3CC[C@@H](O)[C@H](OC)C3)[C@H](C)[C@@H](O)CC1=O)[C@H](C)C[C@@H]2OC [L-685,818, 18-OH, 21-ethyl-FK506]
- Functional recovery (rat sciatic nerve [1]; topical administration to the nerve crush site): accelerate functional recovery

Compound: COc1cc(C(=O)C(=O)N2CCCC[C@H]2C(=O)OC(CCCc2ccccc2)CCCc2cccnc2)cc(OC)c1OC.Cl (some centres unmarked) [V-10,367]
- Mean neurite length ([2]; 1 nM V-10,367 + NGF 10 ng/mL, 96 h): 110 ± 2.2 μm
- Mean neurite length ([2]; 1 nM V-10,367 + NGF 10 ng/mL, 168 h): 136 ± 5.8*^,Δ μm
- Mean neurite length ([2]; 10 nM V-10,367 + NGF 10 ng/mL, 96 h): 138 ± 9.4 μm
- Mean neurite length ([2]; 10 nM V-10,367 + NGF 10 ng/mL, 168 h): 148 ± 8.6*^,††,Δ μm
- Mean neurite length ([2]; 100 nM V-10,367 + NGF 10 ng/mL, 96 h): 121 ± 6.0 μm
- Mean neurite length ([2]; 100 nM V-10,367 + NGF 10 ng/mL, 168 h): 118 ± 4.2*^,† μm
- Number of processes per cell or branching of cell processes ([2]; 1-100 nM with NGF 10 ng/mL): No change
- Concentration of maximal effect on neurite length ([2]; tested at 1, 10, 100 nM with NGF 10 ng/mL): 10 nM
- Average blood clearance [3, 6]: 5.04 L/h/kg
- Elimination half-life [3, 6]: about 1.3 hours
- Volume of distribution at steady state [3, 6]: 2.76 L/kg
- Average Cmax [3, 7]: 171 ng/mL
- Cmax [3, 7]: 285 nM
- Trough concentrations at 8 hours post-dose ([3]; subcutaneous injection 174 mg/kg, 174 mg/kg): 27-252 ng/mL and 45-420 nM
- Apparent half-life following subcutaneous administration ([3]; subcutaneous vs intravenous): prolonged
- Toe spread: distance between the first and fifth digits (rat sciatic nerve [4]; axotomized side, n=3, vehicle 11.0±0.58, uninjured side 19.5±0.39): 13.0±0.41 mm
- Functional recovery compared to vehicle-treated controls (rat sciatic nerve [4]; [8]): earlier functional recovery
- Efficacy upon oral (gavage) administration (rat sciatic nerve [4]; oral gavage, rat sciatic nerve crush): effective
- Days until onset of ability to right the foot and move the toes (onset) (rat sciatic nerve [4]; s.c. V-10,367, n=3, mean ± SEM, vehicle 15.3±0.33): 13.7 ± 0.33 days
- Days until ability to walk on hind feet and toes (walking) (rat sciatic nerve [4]; s.c. V-10,367, n=3, mean ± SEM, vehicle 16.3±0.33): 14 ± 0 days
- Increase of mean axonal areas compared to vehicle (soleus nerve; 18 days after axotomy, subcutaneous injections): 50%
- Increase of mean axonal calibers compared to vehicle (soleus nerve; [8]): 40%
- Tolerability [5]: well tolerated
- FKBP-12 inhibition (FKBP-12): potent FKBP-12 inhibitor

Compound: cyclosporin A
- Nerve regeneration in the rat sciatic nerve following a crush injury (rat sciatic nerve [1]; rat, in vivo): does not increase nerve regeneration
